Assay results: patent US6852706B1, “Methods and compositions for healing heart wounds” (The Wistar Institute, priority 2000, dated 2005)

Legend:
C57B1/6 mice = system: C57B1/6 mice
Experimental: Cardiac injury. Myocardial injury is cryogenically initiated, employing a technique adapted from Taylor et al. (1998) (ref 28). Adult MRL and C57B1/6 mice (6-8 weeks of age) were anaesthetized using an intraperitoneal injection of ketamine (100 mg/kg) and xylazine (15 mg/kg). A 2 mm diameter blunt probe cooled to the temperature of liquid Nitrogen is then introduced, trans-diaphragmatically, to the right ventricular surface of the heart.
Access to the diaphragm was accomplished by a 6-8 mm incision made through the skin on the ventral surface of the abdomen below the ribcage approximately 5 mm posterior to—and approximately 5 mm to the left of the ventral midline—the sternum. The underlying musculature was incised to an equivalent extent. The diaphragm was exposed using forceps to retract the medial lobe of the liver. The right ventricular surface of the heart was thus presented directly adjacent to, and clearly visible through, the diaphragm. Injury to the heart was achieved by holding the cryoprobe in contact with the diaphragmatic surface for 10 seconds and repeated using a second, identical cryoprobe. The abdominal musculature was then repositioned and closed using 6-0 […] suture. The 6-0 nylon suture was also used for skin closure.
Histology Frozen sections: Hearts were removed and frozen in isopentane cooled to −160° C. in liquid nitrogen. Eight micron-thick sections were cut for immunohistochemistry and histology. Fixed sections: Hearts were fixed in Prefer Fixative (Anatheh Ltd.). Paraffin-embedded sections cut to a thickness of 5 microns were used for both histology and immunohistochemistry.
We also treated nonhealer C57B1/6 mice with PTU, which is known to inhibit thyroid activity.

B6 mouse = conditions: 15 days after PTU treatment
MRL mice = assay: Cryo-injury of the heart in MRL (healer) mice given slow-release T3 pellets; format: in vivo, mouse; conditions: pellets containing 0.01 mg T3, slow release (21 days), 0.0005 mg/day, injured one day later
Experimental: The underlying musculature was incised to an equivalent extent.
To determine whether administering T3 to MRL mice inhibits healing of ear and heart wounds, we placed pellets containing 0.01 mg of T3 in a slow release formulation (21 days) in MRL mice. Via these pellets, the mice received 0.0005 mg/day of T3 . Mice were injured one day later.

[1] = wounded C57B1/6 mice pretreated with PTU

| Structure (SMILES) | Heart wound healing and epithelial growth at larger concentrations (C57B1/6 mice; C57B1/6 mice, PTU 2 or 3 mg/day) | Epithelial layer versus untreated C57B1/6 mice (C57B1/6 mice; [1]) | Growth of myocardium versus untreated C57B1/6 mice (C57B1/6 mice; [1]) | Ear hole size versus untreated B6 ear holes (B6 mouse) | Proliferation in ear hole wound (B6 mouse) | Healing of heart wound (MRL mice) | Heart wound scarring / fibrotic tissue (MRL mice; by day 15) |
| --- | --- | --- | --- | --- | --- | --- | --- |
| CCCc1cc(=O)[nH]c(=S)[nH]1 [PTU, propylthiouracil] | better healing and greater epithelial growth | more intact epithelial layer | significantly greater growth of myocardium | smaller | impressive degree of epithelial proliferation, as well as muscle and adipocyte proliferation |  |  |
| N[C@@H](Cc1cc(I)c(Oc2ccc(O)c(I)c2)c(I)c1)C(=O)O [T3] |  |  |  |  |  | never healed | severely scarred, with a large degree of fibrotic tissue |
